US11951131B2, “Anti-SLAMF7 chimeric antigen receptors” (The United States of America, as represented by the …, priority 2018, dated 2024)
Entries after “also recorded” stand apart in the source; their conditions may differ.

Experiments:
SLAMF7^+ MM.1S cells = experiment: Cytotoxicity assay (4 hours, relative to CCRF-CEM cells); type: cell-based, human; details: MM.1S relative to control CCRF-CEM cells (FIG. 8A)
Description: Cytotoxicity assays were conducted as previously described (see Kochenderfer et al., J. Immunother., 32(7): 689-702 (2009)). Cytotoxicity was measured by comparing survival of SLAMF7^+ target cells relative to the survival of negative-control CCRF-CEM cells. Both of these cell types were combined in the same tubes with CAR-transduced T cells. CCRF-CEM negative control cells were labeled with the fluorescent dye 5-(and -6)-(((4-chloromethyl)benzoyl)amino) tetramethylrhodamine (CMTMR) (Invitrogen), and SLAMF7^+ target cells were labeled with CFSE. Cocultures were set up in sterile 5 mL test tubes (BD Biosciences) in duplicate at multiple T cell to target cell ratios. The target cells contained in the tubes were 50,000 SLAMF7^+ target cells along with 50,000 CCRF-CEM negative-control cells. The cultures were incubated for 4 hours at 37° C. Immediately after the incubation, 7AAD (7-amino-actinomycin D) (BD Biosciences) was added, and flow cytometry acquisition was performed. For each T cell plus target-cell culture, the percent survival of SLAMF7^+ target cells was determined by dividing the percent live SLAMF7^+ cells by the percent live CCRF-CEM negative control cells. The corrected percent survival of SLAMF7^+ target cells was calculated by dividing the percent survival of SLAMF7^+ target cells in each T cell plus target cell culture by the ratio of the percent live SLAMF7^+ target cells to percent live CCRF-CEM negative-control cells in tubes containing only SLAMF7^+ target cells and CCRF-CEM cells without effector T cells. This correction was necessary to account for variation in the starting cell numbers and for spontaneous target cell death. Cytotoxicity was calculated as follows: the percent cytotoxicity of […] target cells=100−corrected percent survival of SLAMF7^+ target cells.

[1] = tested on: MM.1S human SLAMF7^+ multiple myeloma solid tumors; experiment: MM.1S solid tumor model in NSG mice, anti-tumor efficacy; type: in vivo; details: for anti-tumor activity: 2 million CAR^+ T cells per mouse, 5 mice per group (FIG. 17)
Description: First, MM.1S human SLAMF7^+ multiple myeloma cell line tumors were established in immunodeficient mice. In this model, the MM.1S cells formed a solid cutaneous mass. Measurable tumors were allowed to develop over 7 days, and then the mice were treated with a single intravenous infusion of MSGV1-IC9-Luc90-CD828Z-transduced human T cells. NSG mice (NOD.Cg-Prkdc^scid Il2rg^tm1Wjl/SzJ) from The Jackson Laboratory, Bar Harbor, Me., were used. Mice received intradermal injections of 4×10^6 MM.1S cells. The cells were suspended in a 1:1 mixture of MATRIGEL™ gelatinous protein mixture (BD Biosciences) and PBS (Phosphate-buffered saline) for injection. Tumors were allowed to grow for 7 days, and then each mouse received a single intravenous infusion of human T cells that were transduced with one of 3 CARs: IC9-Luc90-CD828Z (suicide gene+anti-SLAMF7 CAR), Luc90-CD828Z (anti-SLAMF7 CAR alone), or a negative-control anti-CD19 CAR Hu19-CD828Z. A 4th group was left untreated. All groups included 5 mice. After CAR T-cell infusion, the tumors were measured with calipers every 3 days. The longest length and the length perpendicular to the longest length and the tumor thickness were multiplied together to obtain the tumor volume in mm^3. When the longest length reached 15 mm, mice were sacrificed. Animal studies were approved by the National Cancer Institute Animal Care and Use Committee.
FIGS. 16A-16B show a dose-titration of IC9-Luc90-CD828Z-expressing T cells. In this experiment, immunocompromised NSG mice were injected intradermally with 4×10^6 MM.1S cells to form a solid mass. Mice were then treated with a single infusion of 0.5×10^6, 2×10^6, or 8×10^6, IC9-Luc90-CD828Z-expressing T cells. […] The tumor volume curves end when the first mouse of a group was sacrificed.
MM.'S tumors were established in NSG mice as described in Example 9. FIGS. 17A-17B show results in which mice bearing MM.1S tumors were treated with T cells expressing one of 3 different CARs: IC9-Luc90-CD828Z (suicide gene+anti-SLAMF7 CAR), Luc90-CD828Z (anti-SLAMF7 CAR alone), or a negative-control anti-CD19 CAR Hu19-CD828Z. A 4th group was left untreated in both experiments. All groups included 5 mice. The CARP T cell dose was 2 million CARP T cells per mouse. There were 5 mice in all groups.

[2] = dose of 2 million or more T cells per mouse

Substance	killing of SLAMF7^+ target cells (SLAMF7^+ MM.1S cells)	anti-tumor activity [1]	dose dependence of activity against established tumors ([1]; 0.5×10^6 to 8×10^6 T cells)	survival [1, 2]	tumor eradication [1, 2]	effect on tumors ([1]; single infusion of 0.5×10^6 CAR^+ T cells (FIG. 16))	effect on tumors ([1]; single infusion of 2×10^6 CAR^+ T cells (FIG. 16))	effect on tumors ([1]; single infusion of 8×10^6 CAR^+ T cells (FIG. 16))
Luc90-CD828Z: anti-SLAMF7 CAR (SEQ ID NO: 27): murine Luc90 scFv, human CD8a hinge and TM, CD28 and CD3ζ domains; tested as transduced T cells	killed SLAMF7^+ target cells	powerful anti-tumor activity						
IC9-Luc90-CD828Z: CAR plus suicide gene construct (SEQ ID NO: 31): IC9 suicide gene 5′ to the CAR, T2A, Luc90-CD828Z	killed SLAMF7^+ target cells; also recorded: specifically killed the SLAMF7^+ MM.1S cells	powerful anti-tumor activity	dose-dependent activity	mice survive long-term	tumors can be eradicated	only slightly slowed tumor growth relative to untreated mice but did not eliminate any tumors	eliminated all tumors	eliminated all tumors
